Results published in US11084808B2, “Oxopicolinamide derivative, preparation method therefor and pharmaceutical use thereof” (Jiangsu Hengrui Medicine Co., Ltd., priority 2016, dated 2021).

Test system: human blood
Experiment: In vitro anticoagulant effect on human blood (APTT, CT2)
Format: biochemical
Details: human plasma
Description: Test Example 2: Determination of In Vitro Anticoagulant Effect of the Compounds of the Present Invention on Human Blood
1. Experimental Materials
Plasma: Human blood was collected in blood collection tubes containing no anticoagulant, and then 3.8% sodium citrate (volume ratio 1:9) was added. The tubes were centrifuged at 2500 rpm for 10 minutes at room temperature, and then the plasma was collected and stored at −80° C.:
Reagents: APTT reagent (Activated partial thromboplastin time assay kit, SIEMENS, Art. No. B4218-1), calcium chloride solution;
Instrument: Coagulation instrument (SYSMEX, CA-500).
The divided plasma was melted at room temperature and mixed well. 10000 μM the test compound dissolved in 100% DMSO was diluted to 3000, 300, 200, 150, 75, 30, 10, 3, 0.3 μM with 100% DMSO, and the blank was 100% DMSO. The reagent, plasma, and compound were placed in corresponding positions in the coagulation instrument, and APTT detection of the compound was carried out.
Curve fitting was carried out by graphpad and CT2 was calculated, i.e., the concentration of the compound corresponding to 2 times the APTT of the blank control.

[1] = Table 2, concentration of the compound corresponding to 2 times the APTT of the blank control

| Compound | CT2 (compound concentration doubling APTT) (Table 3 comparison with similar compounds in the published patents) [µM] | CT2 (compound concentration doubling APTT) [1] [µM] |
| --- | --- | --- |
| COc1cn([C@@H](CCOC(C)(C)C)C(=O)Nc2ccc3nccnc3c2)c(=O)cc1-c1cc(Cl)ccc1-c1nc(C)no1 [Comparative Example 2, (S)-4-(tert-butoxy)-2-(4-(5-chloro-2-(3-methyl-1,2,4-oxadiazol-5-yl)phenyl)-5-methoxy-2-oxopyridin-1 (2H)-yl)-N-(quinoxalin-6-yl)butanamide, reference compound] | 13.1 |  |
| COCCC(C(=O)Nc1ccc2[nH]c(C(=O)O)cc2c1)n1cc(OC)c(-c2cc(Cl)ccc2C(C)=O)cc1=O (centres unmarked) [Example 1, 5-(2-(4-(2-acetyl-5-chlorophenyl)-5-methoxy-2-oxopyridin-1(2H)-yl)-4-methoxybutanamido)-1H-indole-2-carboxylic acid] |  | 4.4 |
| COCC[C@@H](C(=O)Nc1ccc2[nH]c(C(=O)O)cc2c1)n1cc(OC)c(-c2cc(Cl)ccc2C(C)=O)cc1=O [Example 2, (S)-5-(2-(4-(2-acetyl-5-chlorophenyl)-5-methoxy-2-oxopyridin-1(2H)-yl)-4-methoxybutanamido)-1H-indole-2-carboxylic acid] |  | 2.9 |
| COCC[C@H](C(=O)Nc1ccc2[nH]c(C(=O)O)cc2c1)n1cc(OC)c(-c2cc(Cl)ccc2C(C)=O)cc1=O [Example 3, (R)-5-(2-(4-(2-acetyl-5-chlorophenyl)-5-methoxy-2-oxopyridin-1(2H)-yl)-4-methoxybutanamido)-1H-indole-2-carboxylic acid] |  | >10000 |
| COc1cn([C@@H](Cc2ccccc2)C(=O)Nc2ccc(C(=O)O)cc2)c(=O)cc1-c1cc(Cl)ccc1C(C)=O [Example 5, (S)-4-(2-(4-(2-acetyl-5-chlorophenyl)-5-methoxy-2-oxopyridin-1(2H)-yl)-3-phenylpropanamido)benzoic acid] |  | 2.0 |
| COc1cn([C@H](Cc2ccccc2)C(=O)Nc2ccc(C(=O)O)cc2)c(=O)cc1-c1cc(Cl)ccc1C(C)=O [Example 6, (R)-4-(2-(4-(2-acetyl-5-chlorophenyl)-5-methoxy-2-oxopyridin-1(2H)-yl)-3-phenylpropanamido)benzoic acid] |  | >10000 |
| CCC(=O)c1ccc(Cl)cc1-c1cc(=O)n(C(Cc2ccccc2)C(=O)Nc2ccc(C(=O)O)cc2)cc1OC (centres unmarked) [Example 8, 4-(2-(4-(5-chloro-2-propionylphenyl)-5-methoxy-2-oxopyridin-1(2H)-yl)-3-phenylpropanamido)benzoic acid] |  | 6.4 |
| CCC(=O)c1ccc(Cl)cc1-c1cc(=O)n([C@@H](Cc2ccccc2)C(=O)Nc2ccc(C(=O)O)cc2)cc1OC [Example 9, (S)-4-(2-(4-(5-chloro-2-propionylphenyl)-5-methoxy-2-oxopyridin-1(2H)-yl)-3-phenylpropanamido)benzoic acid] |  | 2.4 |
| COc1cn([C@@H](Cc2ccccc2)C(=O)Nc2ccc(C(N)=O)cc2)c(=O)cc1-c1cc(Cl)ccc1C(C)=O [Example 11, (S)-4-(2-(4-(2-acetyl-5-chlorophenyl)-5-methoxy-2-oxopyridin-1(2H)-yl)-3-phenylpropanamido)benzamide] |  | 4.2 |
| CNC(=O)c1ccc(NC(=O)[C@H](Cc2ccccc2)n2cc(OC)c(-c3cc(Cl)ccc3C(C)=O)cc2=O)cc1 [Example 13, (S)-4-(2-(4-(2-acetyl-5-chlorophenyl)-5-methoxy-2-oxopyridin-1(2H)-yl)-3-phenylpropanamido)-N-methylbenzamide] |  | 6.0 |
| COc1cn([C@@H](Cc2ccccc2)C(=O)Nc2ccc3nn(C)cc3c2)c(=O)cc1-c1cc(Cl)ccc1C(C)=O [Example 20, (S)-2-(4-(2-acetyl-5-chlorophenyl)-5-methoxy-2-oxopyridin-1(2H)-yl)-N-(2-methyl-2H-indazol-5-yl)-3-phenylpropanamide] |  | 6.5 |
| COc1cn([C@@H](Cc2ccccc2)C(=O)Nc2ccc(C(=O)O)cc2)c(=O)cc1-c1c(C(C)=O)ccc(Cl)c1F [Example 31, (S)-4-(2-(4-(6-acetyl-3-chloro-2-fluorophenyl)-5-methoxy-2-oxopyridin-1(2H)-yl)-3-phenylpropanamido)benzoic acid] |  | 8.5 |
| CCNC(=O)c1ccc(NC(=O)[C@H](Cc2ccccc2)n2cc(OC)c(-c3cc(Cl)ccc3C(C)=O)cc2=O)cc1 [Example 37, (S)-4-(2-(4-(2-acetyl-5-chlorophenyl)-5-methoxy-2-oxopyridin-1(2H)-yl)-3-phenylpropanamido)-N-ethylbenzamide] |  | 7.8 |
| COc1cn(C(Cc2ccccc2)C(=O)Nc2ccc(C(=O)O)cc2)c(=O)cc1-c1cc(Cl)ccc1C(=O)CC1CC1 (centres unmarked) [Example 39, 4-(2-(4-(5-chloro-2-(2-cyclopropylacetyl)phenyl)-5-methoxy-2-oxopyridin-1(2H)-yl)-3-phenylpropanamido)benzoic acid] |  | 8.3 |
| COc1cn([C@@H](Cc2ccccn2)C(=O)Nc2ccc(C(=O)O)cc2)c(=O)cc1-c1cc(Cl)ccc1C(C)=O [Example 80, (S)-4(2-(4-(2-acetyl-5-chlorophenyl)-5-methoxy-2-oxopyridin-1(2H)-yl)-3-(pyridin-2-yl)propanamido)benzoic acid] |  | 7.9 |
| COc1cn([C@H](Cc2ccccn2)C(=O)Nc2ccc(C(=O)O)cc2)c(=O)cc1-c1cc(Cl)ccc1C(C)=O [Example 81, (R)-4-(2-(4-(2-acetyl-5-chlorophenyl)-5-methoxy-2-oxopyridin-1(2H)-yl)-3-(pyridin-2-yl)propanamido)benzoic acid] |  | >10000 |
| COc1cn([C@@H](Cc2ccccn2)C(=O)Nc2ccc(C(N)=O)cc2)c(=O)cc1-c1cc(Cl)ccc1C(C)=O [Example 85, (S)-4-(2-(4-(2-acetyl-5-chlorophenyl)-5-methoxy-2-oxopyridin-1(2H)-yl)-3-(pyridin-2-yl)propanamido)benzamide] |  | 6.5 |
| COc1cn([C@@H](Cc2cccc(C#N)c2)C(=O)Nc2ccc(C(=O)O)cc2)c(=O)cc1-c1cc(Cl)ccc1C(C)=O [Example 89, (S)-4-(2-(4-(2-acetyl-5-chlorophenyl)-5-methoxy-2-oxopyridin-1(2H)-yl)-3-(3-cyanophenyl)propanamido)benzoic acid] |  | 5.7 |
| CCC(=O)c1ccc(Cl)cc1-c1cc(=O)n(C(Cc2ccn(C3CC3)n2)C(=O)Nc2ccc(C(=O)O)cc2)cc1OC (centres unmarked) [Example 91, 4-(2-(4-(5-chloro-2-propionylphenyl)-5-methoxy-2-oxopyridin-(2H)-yl)-3-(1-cyclopropyl-1H-pyrazol-3-yl)propanamido)benzoic acid] |  | 2.1 |
| CCC(=O)c1ccc(Cl)cc1-c1cc(=O)n([C@@H](Cc2ccn(C3CC3)n2)C(=O)Nc2ccc(C(=O)O)cc2)cc1OC [Example 92, (S)-4-(2-(4-(5-chloro-2-propionylphenyl)-5-methoxy-2-oxopyridin-1(2H)-yl)-3-(1-cyclopropyl-1H-pyrazol-3-yl)propanamido)benzoic acid] |  | 1.2 |
| COc1cn(C(Cc2ccn(C3CC3)n2)C(=O)Nc2ccc(C(=O)O)cc2)c(=O)cc1-c1cc(Cl)ccc1C(C)=O (centres unmarked) [Example 93, 4-(2-(4-(2-acetyl-5-chlorophenyl)-5-methoxy-2-oxopyridin-1(2H)-yl)-3-(1-cyclopropyl-1H-pyrazol-3-yl)propanamido)benzoic acid] |  | 2.9 |
| COc1cn([C@@H](Cc2ccn(C3CC3)n2)C(=O)Nc2ccc(C(=O)O)cc2)c(=O)cc1-c1cc(Cl)ccc1C(C)=O [Example 94, (S)-4-(2-(4-(2-acetyl-5-chlorophenyl)-5-methoxy-2-oxopyridin-1(2H)-yl)-3-(1-cyclopropyl-1H-pyrazol-3-yl)propanamido)benzoic acid] |  | 2.2 |
| COc1cn(C(Cc2ccn(C3CC3)n2)C(=O)Nc2ccc3nccnc3c2)c(=O)cc1-c1cc(Cl)ccc1C(C)=O (centres unmarked) [Example 96, 2-(4-(2-acetyl-5-chlorophenyl)-5-methoxy-2-oxopyridin-1(2H)-yl)-3-(1-cyclopropyl-1H-pyrazol-3-yl)-N-(quinoxalin-6-yl)propanamide] |  | 6.7 |
| COc1cn(C(Cc2ccn(C3CC3)n2)C(=O)Nc2ccc3nn(C)cc3c2)c(=O)cc1-c1cc(Cl)ccc1C(C)=O (centres unmarked) [Example 97, 2-(4-(2-acetyl-5-chlorophenyl)-5-methoxy-2-oxopyridin-(2H)-yl)-3-(1-cyclopropyl-1H-pyrazol-3-yl)-N-(2-methyl-2H-indazol-5-yl)propanamide] |  | 5.4 |
| COc1cn(C(Cc2ccn(C3CC3)n2)C(=O)Nc2ccc3ncncc3c2)c(=O)cc1-c1cc(Cl)ccc1C(C)=O (centres unmarked) [Example 98, 2-(4-(2-acetyl-5-chlorophenyl)-5-methoxy-2-oxopyridin-1(2H)-yl)-3-(1-cyclopropyl-1H-pyrazol-3-yl)-N-(quinazolin-6-yl)propanamide] |  | 7.6 |
| CCC(=O)c1ccc(Cl)cc1-c1cc(=O)n(C(Cc2ccn(C)n2)C(=O)Nc2ccc(C(=O)O)cc2)cc1OC (centres unmarked) [Example 99, 4-(2-(4-(5-chloro-2-propionylphenyl)-5-methoxy-2-oxopyridin-1(2H)-yl)-3-(1-methyl-1H-pyrazol-3-yl)propanamido)benzoic acid] |  | 3.5 |
